Earlier results, collected in US20080242855A1, “Process for Producing Flavone C Glycoside Derivatives” (priority 2004, published 2008).

Legend:
peritoneal mast cells = conditions: reported in Japanese Patent Laid-Open No. 2004-035474
[1] = tested on: auricular edema induced by 2,4-dinitrofluorobenzen (DNFB); conditions: reported in Japanese Patent Laid-Open No. 2004-035474

| Structure (SMILES) | inhibitory effect on histamine release from peritoneal mast cells (peritoneal mast cells) | inhibitory effect on the formation of auricular edema induced by 2,4-dinitrofluorobenzen (DNFB) [1] |
| --- | --- | --- |
| O=c1cc(-c2ccc(O)cc2)oc2cc3c(c(O)c12)[C@@H]1O[C@H](CO)[C@@H](O)[C@H](O)[C@@H]1O3 [formula (1)] | inhibitory effect | inhibitory effect |
| O=c1cc(-c2ccc(O)cc2)oc2c3c(cc(O)c12)O[C@H]1[C@@H](O)[C@H](O)[C@@H](CO)O[C@@H]31 [formula (4)] | inhibitory effect | inhibitory effect |
